Paper PMC3723878 (PLoS ONE, 2013)
Substitutions are numbered along the chain they refer to.

What was measured:
[1] = biological target: T1, human α1A-AR F288A variant (Homo sapiens, UniProt P35348, F288A); test: Saturation binding of ^125I-HEAT
T1 construct: expressed in transfected cells; host or cells: COS-7 (transient, calcium phosphate), membranes
T1 sequence (P35348 1-466 F288A): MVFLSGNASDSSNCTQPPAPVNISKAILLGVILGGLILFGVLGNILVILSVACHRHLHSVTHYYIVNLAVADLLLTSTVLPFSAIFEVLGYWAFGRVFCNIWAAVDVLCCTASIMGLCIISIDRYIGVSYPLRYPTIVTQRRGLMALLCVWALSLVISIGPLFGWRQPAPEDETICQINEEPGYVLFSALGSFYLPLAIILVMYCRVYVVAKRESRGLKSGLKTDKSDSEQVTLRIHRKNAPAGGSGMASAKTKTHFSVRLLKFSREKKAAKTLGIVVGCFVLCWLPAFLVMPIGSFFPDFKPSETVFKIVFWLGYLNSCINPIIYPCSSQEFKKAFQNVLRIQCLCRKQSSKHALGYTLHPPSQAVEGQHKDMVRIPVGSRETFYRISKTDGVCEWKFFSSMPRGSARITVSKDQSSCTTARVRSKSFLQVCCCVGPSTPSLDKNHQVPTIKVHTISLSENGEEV
Text: α1A-AR cDNA inserted in the prK5 vector was kindly provided by Michael Brownstein (Craig Venter Institute, Rockville, MD). Point mutations were introduced into the α1A-AR gene by sense and antisense primers (Sigma-Aldrich, St Quentin-Fallavier, France) containing the desired changes, using the QuikChange Site-Directed Mutagenesis kit. The incorporation of each mutation was verified by DNA sequencing.
CHO cells stably expressing α1-ARs were kindly provided by Dr. Hervé Paris (INSERM U858, Toulouse, France) and were grown in a 50∶50 Dulbecco's Modified Eagle's Medium (DMEM)/Ham's F12 medium supplemented with 10% (v/v) foetal bovine serum (FBS), glutamine (2 mM), penicillin (100 units/ml) and streptomycin (100 µg/ml) at 37°C with 5% CO2. COS-7 cells were grown at 37°C under 5% CO2 in Dulbecco's modified Eagle's medium containing 10% fetal calf serum, 1% penicillin and 1% glutamine (Sigma-Aldrich, St Quentin-Fallavier, France). At 80% confluence, the cells were transfected using a calcium phosphate precipitation method for transient expression of the genetic construct. After 48 h incubation at 37°C, cells were harvested and the membranes were prepared as follow. Cells were washed with ice-cold phosphate buffer and centrifuged at 1700 g for 10 min (4°C). The pellet was suspended in ice-cold buffer (1 mM EDTA, 25 mM sodium phosphate, and 5 mM MgCl2, pH 7.4) and homogenized using an Potter-Elvehjem homogenizer (Fisher Scientific Labosi, Elancourt, France). The homogenate was centrifuged at 1700 g for 15 min (4°C). The sediment was resuspended in buffer, homogenized, and centrifuged at 1700 g for 15 min (4°C). The combined supernatants were centrifuged at 35,000 g for 30 min (4°C), and the pellet was suspended in the same buffer (0.1 ml/dish). […] Cells were grown in a 50∶50 Dulbecco's Modified Eagle's Medium (DMEM)/Ham's F12 medium supplemented with 10% (v/v) foetal bovine serum (FBS), glutamine (2 mM), penicillin (100 units/ml) and streptomycin (100 µg/ml) at 37°C with 5% CO2. Media was changed every 2–3 days and cells were passaged when confluent with 0.05% trypsin and 0.02% EDTA.
(§1) Binding experiments were performed in a 100 µL reaction mix at room temperature in buffer composed of 50 mM Tris-HCl, pH 7.4, 10 mM MgCl2, 1 g/L BSA. Reactions were stopped by filtration through 96 GF/C filter plates pre-incubated with 0.5% polyethylenimine.
(§2) Binding data were analyzed by nonlinear regression using the KaleidaGraph 4.0 software (Synergy software, Reading, PA). pKD values and Bmax (number of binding sites) were determined by applying a nonlinear regression to data obtained with saturation binding assays. The nonlinear regression used was BS = (Bmax*A)/KD+A, where BS is the specific binding, Bmax the number of binding sites, A the concentration of radioligand, and KD the dissociation constant of the radioligand. Data resulting from competition binding assays were analyzed using the Hill equation for IC50 and curve slope estimations. […] The linear curves were analyzed with IC50 = Ki+(L/KD)*Ki. Dissociation kinetics were analyzed using a simple equation of exponential decay BS * exp (-Koff*t), where BS is the specific binding at time zero and Koff is the dissociation rate constant. Results are expressed as mean ± s.e. mean from n independent experiments. One-way Anova test was used to compare values. A p<0.05 was accepted for statistical significance.

[2] = biological target: T2, α1A-AR (Homo sapiens, UniProt P35348); format: binding; design: expressed in transfected cells; host or cells: COS-7, transient (calcium phosphate); settings: ^125I-HEAT 0.4 nM, HEAT 5 µM alone
T2 sequence (P35348 1-466): T1 sequence (P35348 1-466 F288A) with A288F
Description: as §1, §2

[3] = biological target: T2, α1A-AR; design: expressed in transfected cells; method as in PMID 20978120; settings: CHO cells used for Ca^2+ release experiments; cited from earlier work

## O=C1c2ccccc2CCC1CNCCc1ccc(O)c([125I])c1 (stereo not shown) [125I-HEAT]
[1]; F288A
  ^125I-HEAT Ratio (loss of affinity relative to WT): 1.3
[1]; F288A (6.51), saturation binding, n = 3–6
  ^125I-HEAT pKd: 9.92±0.12
[2]
  ^125I-HEAT dissociation rate (Koff): 0.00103 s⁻¹
[3]
  pKD: 9.2±0.09
